Laboratory results reported in ChEMBL document CHEMBL4311969, “Polygala tenuifolia-Acori tatarinowii herbal pair as an inspiration for substituted cinnamic α-asaronol esters: Design, synthesis, anticonvulsant activity, and inhibition of lactate dehydrogenase study” (Eur J Med Chem, 2019).
Where “and” joins values, the source holds several entries; their conditions need not be identical. Equal values may be shown once. Values belong to the compound of their own block, whether it stands above or below them. Calls of active or inactive are those of the source. The calls are words filed in the database; no cut-off is given here.

What was measured:
Mus musculus [1] = assay: Anticonvulsant activity in Kunming mouse assessed as reduction in Sc3-MP-induced clonic seizure rate at 300 mg/kg, ip administered 0.5 hrs before Sc3-MP stimulation relative to control; assay type: functional; design: scale not given: the % may be the effect or the level left
Mus musculus [2] = assay: Anticonvulsant activity in Kunming mouse assessed as reduction in Sc3-MP-induced tonic seizure rate at 300 mg/kg, ip administered 0.5 hrs before Sc3-MP stimulation relative to control; assay type: functional; design: scale not given: the % may be the effect or the level left
Mus musculus [3] = assay: Anticonvulsant activity in Kunming mouse assessed as MES-induced hind limb extension at 100 mg/kg, ip administered 0. 5 to 2 hrs before MES stimulation; assay type: functional, organism-based
[4] = Neurotoxicity against Kunming mouse assessed as time remained in rod at 100 mg/kg, ip administered 0.5 to 2 hrs by rotarod test; assay type: toxicity, organism-based; settings: in vivo
Mus musculus [5] = assay: Anticonvulsant activity in Kunming mouse assessed as MES-induced hind limb extension at 50 mg/kg, ip administered 0.5 and 2 hrs before MES stimulation relative to control; assay type: functional
Mus musculus [6] = assay: Anticonvulsant activity in Kunming mouse assessed as reduction in ScPTZ-induced seizure at 300 mg/kg, ip administered 0.25 to 2 hrs before ScPTZ stimulation relative to control; assay type: functional; design: scale not given: the % may be the effect or the level left
Mus musculus [7] = assay: Anticonvulsant activity in Kunming mouse assessed as reduction in ScPTZ-induced seizure at 100 mg/kg, ip administered 0.25 to 2 hrs before ScPTZ stimulation relative to control; assay type: functional
Mus musculus [8] = assay: Anticonvulsant activity in Kunming mouse assessed as reduction in ScPTZ-induced clonic seizure at 300 mg/kg, ip administered 0.5 hrs before ScPTZ stimulation relative to control; assay type: functional; design: scale not given: the % may be the effect or the level left
Mus musculus [9] = assay: Anticonvulsant activity in Kunming mouse assessed as reduction in ScPTZ-induced clonic seizure at 100 mg/kg, ip administered 0.5 hrs before ScPTZ stimulation relative to control; assay type: functional; design: scale not given: the % may be the effect or the level left
Mus musculus [10] = assay: Anticonvulsant activity in Kunming mouse assessed as reduction in ScPTZ-induced tonic seizure rate at 300 mg/kg, ip administered 0.5 hrs before ScPTZ stimulation relative to control; assay type: functional; design: scale not given: the % may be the effect or the level left
Mus musculus [11] = assay: Anticonvulsant activity in Kunming mouse assessed as reduction in ScPTZ-induced tonic seizure rate at 100 mg/kg, ip administered 0.5 hrs before ScPTZ stimulation relative to control; assay type: functional; design: scale not given: the % may be the effect or the level left
Mus musculus [12] = assay: Anticonvulsant activity in Kunming mouse assessed as reduction in ScPTZ-induced mortality rate at 300 mg/kg, ip administered 0.5 hrs before ScPTZ stimulation relative to control; assay type: functional; design: scale not given: the % may be the effect or the level left
Mus musculus [13] = assay: Anticonvulsant activity in Kunming mouse assessed as reduction in Sc3-MP-induced mortality rate at 300 mg/kg, ip administered 0.5 hrs before Sc3-MP stimulation relative to control; assay type: functional; design: scale not given: the % may be the effect or the level left
Mus musculus [14] = assay: Anticonvulsant activity in ip dosed Kunming mouse assessed as MES-induced hind limb extension administered 0.5 hrs before MES stimulation; assay type: functional
Mus musculus [15] = assay: Anticonvulsant activity in ip dosed Kunming mouse assessed as reduction in ScPTZ-induced seizure administered 0.5 hrs before ScPTZ stimulation; assay type: functional
Mus musculus [16] = assay: Anticonvulsant activity in Kunming mouse assessed as reduction in Sc3-MP-induced seizure ip dosed measured at 0.5 hrs before Sc3-MP stimulation; assay type: functional
Mus musculus [17] = assay: […] activity in ip dosed Kunming mouse assessed as reduction in formalin-induced paw licking administered 0.5 hrs before formalin stimulation; assay type: functional
[18] = Neurotoxicity against ip dosed Kunming mouse assessed as time remained in rod measured at 0.5 hrs by rotarod test; assay type: toxicity, organism-based; settings: in vivo
[19] = Protective index, ratio of TD50 for neurotoxicity against ip dosed Kunming mouse assessed as time remained in rod measured at 0.5 hrs by rotarod test to ED50 for anticonvulsant activity in ip dosed Kunming mouse assessed as MES-induced hind limb extension administered 0.5 hrs; assay type: toxicity, organism-based; settings: in vivo, read-out: PI
[20] = (§1) Protective index, ratio of TD50 for neurotoxicity against ip dosed Kunming mouse assessed as time remained in rod measured at 0.5 hrs by rotarod test to ED50 for anticonvulsant activity in ip dosed Kunming mouse assessed as reduction in ScPTZ-induced seizure administered 0.5 hrs before ScPTZ stimulation; assay type: toxicity, organism-based; settings: in vivo, read-out: PI
[21] = as §1, with “Sc3-MP-induced” for “ScPTZ-induced”, “Sc3-MP” for “ScPTZ”; assay type: toxicity, organism-based; settings: in vivo, read-out: PI
[22] = as §1, with “formalin-induced paw licking” for “ScPTZ-induced seizure”, “formalin” for “ScPTZ”; assay type: toxicity, organism-based; settings: in vivo, read-out: PI
Homo sapiens [23] = species: Homo sapiens; assay: Inhibition of human LDH1 at 0.5 mM using sodium pyruvate as substrate by UV-VIS spectrophotometry method relative to control
Homo sapiens [24] = species: Homo sapiens; assay: Inhibition of human LDH5 at 0.5 mM using sodium pyruvate as substrate by UV-VIS spectrophotometry method relative to control
Mus musculus [25] = assay: Anticonvulsant activity in Kunming mouse assessed as MES-induced hind limb extension at 100 mg/kg, ip administered 0. 5 to 4 hrs before MES stimulation relative to control; assay type: functional
Mus musculus [26] = assay: Anticonvulsant activity in Kunming mouse assessed as MES-induced hind limb extension at 100 mg/kg, ip administered 3 hrs before MES stimulation; assay type: functional, organism-based
Mus musculus [27] = assay: Anticonvulsant activity in Kunming mouse assessed as MES-induced hind limb extension at 50 mg/kg, ip administered 0.5 to 4 hrs before MES stimulation relative to control; assay type: functional
Mus musculus [28] = assay: Anticonvulsant activity in Kunming mouse assessed as reduction in ScPTZ-induced seizure at 100 mg/kg, ip administered 0.5 hrs before ScPTZ stimulation relative to control; assay type: functional; design: scale not given: the % may be the effect or the level left
Homo sapiens [29] = species: Homo sapiens; assay: Inhibition of human LDH1 at 0.5 mM using sodium pyruvate as substrate measured for 60 sec for every 5 mins by LC/MS-MS analysis
Homo sapiens [30] = species: Homo sapiens; assay: Inhibition of human LDH5 at 0.5 mM using sodium pyruvate as substrate measured for 60 sec for every 5 mins by LC/MS-MS analysis
[31] = Drug metabolism in Sprague-Dawley rat assessed as retention time by HPLC/MS analysis; assay type: ADME
Mus musculus [32] = assay: Anticonvulsant activity in Kunming mouse assessed as reduction in ScPTZ-induced seizure at 100 mg/kg, ip administered 0.25 and 1 hrs before ScPTZ stimulation relative to control; assay type: functional; design: scale not given: the % may be the effect or the level left
Mus musculus [33] = assay: Anticonvulsant activity in Kunming mouse assessed as reduction in Sc3-MP-induced seizure at 300 mg/kg, ip administered 0.25 and 1 hrs before Sc3-MP stimulation relative to control; assay type: functional, organism-based
Mus musculus [34] = assay: Anticonvulsant activity in Kunming mouse assessed as reduction in Sc3-MP-induced seizure at 300 mg/kg, ip administered 0.5 hrs before Sc3-MP stimulation relative to control; assay type: functional; design: scale not given: the % may be the effect or the level left

Compound: COc1cccc(/C=C/C(=O)OC/C=C/c2cc(OC)c(OC)cc2OC)c1
Activity (Mus musculus [1]): 100% | Activity (Mus musculus [2]): 75% | Activity (Mus musculus [3]): Active | Activity [4]: Non-Toxic | Activity (Mus musculus [5]): inactive | Activity (Mus musculus [6]): 50% | Activity (Mus musculus [7]): inactive | Activity (Mus musculus [8]): 100% | Activity (Mus musculus [9]): 100% | Activity (Mus musculus [10]): 50% | Activity (Mus musculus [11]): 100% | Activity (Mus musculus [12]): 0% | Activity (Mus musculus [13]): 25% | ED50 (Mus musculus [14]): 72.9 mg/kg and 190 µmol/kg | ED50 (Mus musculus [15]): 247 mg/kg and 643 µmol/kg | ED50 (Mus musculus [16]): 249 mg/kg and 647 µmol/kg | ED50 (Mus musculus [17]): > 100 mg/kg and > 260 µmol/kg | TD50 at 0.5 h [18]: > 1000 mg/kg and > 2600 µmol/kg | selectivity ratio at 0.5 h [19]: > 13.7 | selectivity ratio at 0.5 h [20]: > 4.1 | selectivity ratio at 0.5 h [21]: > 4 | selectivity ratio at 0.5 h [22]: > 8.9 | inhibition (Homo sapiens [23]): inactive | inhibition (Homo sapiens [24]): inactive | Activity (Mus musculus [25]): 25 - 100%

Compound: COc1cc(OC)c(/C=C/C(=O)OC/C=C/c2cc(OC)c(OC)cc2OC)c(OC)c1
Activity (Mus musculus [1]): 100% | Activity (Mus musculus [2]): 75% | Activity (Mus musculus [3]): Active | Activity (Mus musculus [26]): Active | Activity [4]: Non-Toxic | Activity (Mus musculus [27]): 50% | Activity (Mus musculus [6]): 50% | Activity (Mus musculus [7]): inactive | Activity (Mus musculus [28]): 100% | Activity (Mus musculus [8]): 100% | Activity (Mus musculus [9]): 100% | Activity (Mus musculus [10]): 0% | Activity (Mus musculus [11]): 100% | Activity (Mus musculus [13]): 25% | ED50 (Mus musculus [14]): 157 µmol/kg and 69.8 mg/kg | ED50 (Mus musculus [15]): 212 mg/kg and 476 µmol/kg | ED50 (Mus musculus [16]): > 300 mg/kg and > 675 µmol/kg | ED50 (Mus musculus [17]): 99 mg/kg and 223 µmol/kg | TD50 at 0.5 h [18]: > 2250 µmol/kg and > 1000 mg/kg | selectivity ratio at 0.5 h [19]: > 14.3 | selectivity ratio at 0.5 h [20]: > 4.7 | selectivity ratio at 0.5 h [21]: 3.3 | selectivity ratio at 0.5 h [22]: > 10.1 | inhibition (Homo sapiens [29]): Active | inhibition (Homo sapiens [30]): Active | Activity (Mus musculus [25]): 25 - 100%

Retention_time [31]: 67.5 min
Compound: COc1cc(OC)c(OC)cc1/C=C/CO
Activity (Mus musculus [3]): Active | Activity [4]: Non-Toxic | ED50 (Mus musculus [14]): 277 µmol/kg and 62 mg/kg | TD50 at 0.5 h [18]: 3070 µmol/kg and 689 mg/kg | selectivity ratio at 0.5 h [19]: 11.1

Compound: COc1cc(OC)c(OC)cc1/C=C/COC(=O)/C=C/c1ccc(Cl)cc1
Activity (Mus musculus [1]): 100% | Activity (Mus musculus [2]): 50% | Activity (Mus musculus [3]): Active | Activity [4]: Non-Toxic | Activity (Mus musculus [27]): 50% | Activity (Mus musculus [6]): 50% | Activity (Mus musculus [7]): inactive | Activity (Mus musculus [32]): 75% | Activity (Mus musculus [8]): 100% | Activity (Mus musculus [9]): 100% | Activity (Mus musculus [10]): 25% | Activity (Mus musculus [11]): 100% | Activity (Mus musculus [12]): 0% | Activity (Mus musculus [33]): Active | Activity (Mus musculus [34]): 50% | ED50 (Mus musculus [14]): 137 µmol/kg and 53.4 mg/kg | ED50 (Mus musculus [15]): 142 mg/kg and 364 µmol/kg | ED50 (Mus musculus [16]): > 200 mg/kg and > 514 µmol/kg | ED50 (Mus musculus [17]): 108 mg/kg and 278 µmol/kg | TD50 at 0.5 h [18]: > 2570 µmol/kg and > 1000 mg/kg | selectivity ratio at 0.5 h [19]: > 18.7 | selectivity ratio at 0.5 h [20]: > 7.1 | selectivity ratio at 0.5 h [21]: > 6.2 | selectivity ratio at 0.5 h [22]: > 9.3 | inhibition (Homo sapiens [23]): < 5% | inhibition (Homo sapiens [24]): < 9% | Activity (Mus musculus [25]): 25 - 100%
